The first assay has as its target His-tagged N-terminal ATP binding domain (amino acid residues 9-236) of HSP90α (Homo sapiens, UniProt P07900). The assay is described as follows: HSP90 inhibitor binding potency: TRF competition binding assay. The conditions noted are these: Table I; read-out: Hsp90 IC50 Range. How it is done:
HSP90 Inhibitor Binding Potency: TRF Binding Assay
In this example, the binding potency of HSP90 inhibitors as measured by a TRF binding assay is described.
TRF competition binding assays were performed to determine the binding potency (IC50 values) of HSP90 inhibitors. Purified His-tagged N-terminal ATP binding domain (amino acid residues 9-236) of HSP90α (HSP90α GeneID: 3320; mRNA Sequence NM_005348) was incubated for two hours at room temperature in binding buffer (50 mM HEPES, 6 mM MgCl2, 20 mM KCl and 0.1% BSA) with biotinylated radicicol and progressively higher concentrations of the competing compounds. A fraction of the mixture was transferred to capture plates (coated with streptavidin) and incubated for one hour at room temperature. After washing with DELFIA wash buffer, europium-labeled anti-his antibody was added and incubated for two hours at room temperature, followed by washing with DELFIA buffer. DELFIA enhancement solution was then added. After gentle shaking for 10 minutes, the plates were read in VICTOR for europium counts.
Turning to `Cc1nc(N)nc2c1C(=O)CC(c1cccnc1-c1ccccc1F)C2` (centres unmarked) [Compound 57, 2-amino-7-[2-(2-fluorophenyl)pyridin-3-yl]-4-methyl-7,8-dihydroquinazolin-5(6H)-one], the IC50 was under 1000 nM. Still for that read-out and setting: as for `Cc1cccc(C2CC(=O)c3c(C)nc(N)nc3C2)c1-c1ccccc1` (centres unmarked) [Compound 15, 2-amino-4-methyl-7-(6-methyl-1,1′-biphenyl-2-yl)-7,8-dihydroquinazolin-5(6H)-one], the figure is 1000 to 10000 nM; as for `Cc1nc(N)nc2c1C(=O)CC(c1c(-c3ccccn3)cccc1-c1ccccn1)C2` (centres unmarked) [Compound 38, 2-amino-7-(2,6-dipyridin-2-ylphenyl)-4-methyl-7,8-dihydroquinazolin-5(6H)-one], under 1000 nM; as for `Cc1nc(N)nc2c1C(=O)CC(c1ccccc1-c1c(F)cccc1F)C2` (centres unmarked) [Compound 85, 2-amino-7-(2′,6′-difluoro-1,1′-biphenyl-2-yl)-4-methyl-7,8-dihydroquinazolin-5(6H)-one], under 1000 nM.

With `COc1cccc(-c2cn(C)nc2C2CC(=O)c3c(C)nc(N)nc3C2)n1` (centres unmarked) [Compound 127, 2-amino-7-[4-(6-methoxy-pyridin-2-yl)-1-methyl-1H-pyrazol-3-yl]-4-methyl-7,8-dihydro-6H-quinazolin-5-one], the IC50 was under 1000 nM. On the same count and under the same terms, as for `Cc1nc(N)nc2c1C(=O)CC(c1ccccc1-c1cccc(OC(F)(F)F)c1)C2` (centres unmarked) [Compound 112, 2-amino-4-methyl-7-[3′-(trifluoromethoxy)-1,1′-biphenyl-2-yl]-7,8-dihydroquinazolin-5(6H)-one], the figure is over 10000 nM; as for `Cc1nc(N)nc2c1C(=O)CC(c1cccc(Br)c1)C2` (centres unmarked) [Compound 7, 2-amino-7-(3-bromophenyl)-4-methyl-7,8-dihydroquinazolin-5(6H)-one], 1000 to 10000 nM.

As to `Cc1ccccc1-c1ccccc1C1CC(=O)c2c(C)nc(N)nc2C1` (centres unmarked) [Compound 49, 2-amino-4-methyl-7-(2′-methyl-1,1′-biphenyl-2-yl)-7,8-dihydroquinazolin-5(6H)-one], the IC50 is under 1000 nM. On the same count and under the same terms, as for `Cc1cccc(C2CC(=O)c3c(C)nc(N)nc3C2)c1-c1cccnc1F` (centres unmarked) [Compound 19, 2-amino-7-[2-(2-fluoropyridin-3-yl)-3-methylphenyl]-4-methyl-7,8-dihydroquinazolin-5(6H)-one], the figure is 1000 to 10000 nM; as for `Cc1nc(N)nc2c1C(=O)CC(c1ccccc1-c1c(C)noc1C)C2` (centres unmarked) [Compound 59, 2-amino-7-[2-(3,5-dimethylisoxazol-4-yl)phenyl]-4-methyl-7,8-dihydroquinazolin-5(6H)-one], 1000 to 10000 nM. On the same count and under the same terms, as for `Cc1cccc(Oc2ccccc2C2CC(=O)c3c(C)nc(N)nc3C2)c1` (centres unmarked) [Compound 135, 2-amino-4-methyl-7-[2-(3-methylphenoxy)phenyl]-7,8-dihydroquinazolin-5(6H)-one], the figure is under 1000 nM; as for `Cc1ccc(-c2ccccc2C2CC(=O)c3c(C)nc(N)nc3C2)c(F)c1` (centres unmarked) [Compound 77, 2-amino-7-(2′-fluoro-4′-methyl-1,1′-biphenyl-2-yl)-4-methyl-7,8-dihydroquinazolin-5(6H)-one], under 1000 nM. On to `Cc1nc(N)nc2c1C(=O)CC(c1ccccc1-c1ccc(F)cc1F)C2` (centres unmarked) [Compound 84, 2-amino-7-(2′,4′-difluoro-1,1′-biphenyl-2-yl)-4-methyl-7,8-dihydroquinazolin-5(6H)-one], for which the IC50 is under 1000 nM. Same read-out and setting: as for `Cc1nc(N)nc2c1C(=O)CC(c1ccccc1Oc1ncccn1)C2` (centres unmarked) [Compound 144, 2-amino-4-methyl-7-[2-(pyrimidin-2-yloxy)phenyl]-7,8-dihydroquinazolin-5(6H)-one], the figure is 1000 to 10000 nM; as for `COc1ccc(-c2ccccc2C2CC(=O)c3c(C)nc(N)nc3C2)cn1` (centres unmarked) [Compound 74, 2-amino-7-[2-(6-methoxypyridin-3-yl)phenyl]-4-methyl-7,8-dihydroquinazolin-5(6H)-one], 1000 to 10000 nM. Same read-out and setting: as for `Cc1nc(N)nc2c1C(=O)CC(c1ccccc1-c1ccc[nH]c1=O)C2` (centres unmarked) [Compound 169, 2-amino-4-methyl-7-[2-(2-oxo-1,2-dihydropyridin-3-yl)phenyl]-7,8-dihydroquinazolin-5(6H)-one], the figure is under 1000 nM; as for `Cc1nc(N)nc2c1C(=O)CC(c1ccccc1CCc1ccccc1)C2` (centres unmarked) [Compound 162, 2-amino-4-methyl-7-[2-(2-phenylethyl)phenyl]-7,8-dihydroquinazolin-5(6H)-one], over 10000 nM.

Consider `Cc1nc(N)nc2c1C(=O)CC(c1ccccc1-c1cccc(CN(C)C)c1)C2` (centres unmarked) [Compound 174, 2-amino-7-{3′-[(dimethylamino)methyl]-1,1′-biphenyl-2-yl}-4-methyl-7,8-dihydroquinazolin-5(6H)-one], for which the IC50 was in the range of 1000 to 10000 nM. Same read-out and setting: as for `Cc1nc(N)nc2c1C(=O)CC(c1ccccc1Oc1cccc(F)n1)C2` (centres unmarked) [Compound 145, 2-amino-7-{2-[(6-fluoropyridin-2-yl)oxy]phenyl}-4-methyl-7,8-dihydroquinazolin-5(6H)-one], the figure is under 1000 nM; as for `Cc1nc(N)nc2c1C(=O)CC(c1cc(F)ccc1-c1cccnc1F)C2` (centres unmarked) [Compound 88, 2-amino-7-[5-fluoro-2-(2-fluoropyridin-3-yl)phenyl]-4-methyl-7,8-dihydroquinazolin-5(6H)-one], under 1000 nM.

Staying with this assay, now noted: Table II; read-out: Hsp90 IC50 Range.
Turning to `COc1ccccc1-n1ccnc1C1CC(=O)c2c(C)nc(N)nc2C1` (centres unmarked) [Compound 194, 2-amino-7-[1-(2-methoxy-phenyl)-1H-imidazol-2-yl]-4-methyl-7,8-dihydro-6H-quinazolin-5-one], the IC50 is under 1000 nM.

In the case of `COc1nc(-c2cc(F)ccc2C2CC(=O)c3c(C)nc(N)nc3C2)ncc1Cl` (centres unmarked) [Compound 272, 2-amino-7-[2-(5-chloro-4-methoxy-pyrimidin-2-yl)-4-fluoro-phenyl]-4-methyl-7,8-dihydro-6H-quinazolin-5-one], the half-maximal inhibitory concentration (IC50) was under 1000 nM. `COc1cccc(-c2cc(F)ccc2[C@@H]2CC(=O)c3c(C)nc(N)nc3C2)n1` [Compound 261, (S)-2-amino-7-[4-fluoro-2-(6-methoxy-pyridin-2-yl)-phenyl]-4-methyl-7,8-dihydro-6H-quinazolin-5-one]: the IC50 was under 1000 nM. As to `COc1cncc(-c2cc(F)ccc2C2CC(=O)c3c(C)nc(N)nc3C2)n1` (centres unmarked) [Compound 221, 2-amino-7-[4-fluoro-2-(6-methoxy-pyrazin-2-yl)-phenyl]-4-methyl-7,8-dihydro-6H-quinazolin-5-one], the IC50 was under 1000 nM. On the same count and under the same terms, as for `CC(=O)c1ccc(-c2cc(F)ccc2[C@@H]2CC(=O)c3c(C)nc(N)nc3C2)s1` [Compound 326, (S)-7-[2-(5-Acetyl-thiophen-2-yl)-4-fluoro-phenyl]-2-amino-4-methyl-7,8-dihydro-6H-quinazolin-5-one], the figure is 1000 to 10000 nM; as for `COc1ccc(F)c(-c2cc(F)ccc2C2CC(=O)c3c(C)nc(N)nc3C2)c1` (centres unmarked) [Compound 186, 2-amino-7-(5,2′-difluoro-5′-methoxy-biphenyl-2-yl)-4-methyl-7,8-dihydro-6H-quinazolin-5-one], under 1000 nM; as for `COc1nc(-c2cc(F)ccc2[C@@H]2CC(=O)c3c(C)nc(N)nc3C2)ncc1F` [Compound 230, (S)-2-amino-7-[4-fluoro-2-(5-fluoro-4-methoxy-pyrimidin-2-yl)-phenyl]-4-methyl-7,8-dihydro-6H-quinazolin-5-one], under 1000 nM.

Turning to `COc1nc(-n2ccnc2[C@H]2CC(=O)c3c(C)nc(N)nc3C2)ncc1C` [Compound 207, (R)-2-amino-7-[1-(4-methoxy-5-methyl-pyrimidin-2-yl)-1H-imidazol-2-yl]-4-methyl-7,8-dihydro-6H-quinazolin-5-one], the IC50 was over 10000 nM.

For `Nc1nc(Cc2cccc([N+](=O)[O-])c2)c2c(n1)CC(c1ccccc1)CC2=O` (centres unmarked) [Compound 308, 2-amino-4-(3-nitro-benzyl)-7-phenyl-7,8-dihydro-6H-quinazolin-5-one], the IC50 is over 10000 nM. On the same count and under the same terms, as for `CCc1nc(N)nc2c1C(=O)CC(c1ccc(F)cc1Br)C2` (centres unmarked) [Compound 315, 2-amino-7-(2-bromo-4-fluoro-phenyl)-4-ethyl-7,8-dihydro-6H-quinazolin-5-one], the figure is over 10000 nM; as for `Cc1nc(N)nc2c1C(=O)CC(c1cc(F)ccc1Br)C2` (centres unmarked) [Compound 238, 2-amino-7-(2-bromo-5-fluoro-phenyl)-4-methyl-7,8-dihydro-6H-quinazolin-5-one], 1000 to 10000 nM; as for `Cc1ccc(-n2ccnc2C2CC(=O)c3c(C)nc(N)nc3C2)c(F)c1` (centres unmarked) [Compound 329, 2-amino-7-[1-(2-fluoro-4-methyl-phenyl)-1H-imidazol-2-yl]-4-methyl-7,8-dihydro-6H-quinazolin-5-one], 1000 to 10000 nM. The same measure, in the same setting: as for `CC(=O)Nc1cccc(Cc2nc(N)nc3c2C(=O)CC(c2ccccc2)C3)c1` (centres unmarked) [Compound 310, N-[3-(2-amino-5-oxo-7-phenyl-5,6,7,8-tetrahydro-quinazolin-4-ylmethyl)-phenyl]-acetamide], the figure is over 10000 nM; as for `COc1cncc(-c2ccc(F)cc2C2CC(=O)c3c(C)nc(N)nc3C2)n1` (centres unmarked) [Compound 286, 2-amino-7-[5-fluoro-2-(6-methoxy-pyrazin-2-yl)-phenyl]-4-methyl-7,8-dihydro-6H-quinazolin-5-one], 1000 to 10000 nM. Still for that read-out and setting: as for `Cc1nc(N)nc2c1C(=O)CC(c1ccc(F)cc1-c1cccc3ccccc13)C2` (centres unmarked) [Compound 212, 2-amino-7-(4-fluoro-2-naphthalen-1-yl-phenyl)-4-methyl-7,8-dihydro-6H-quinazolin-5-one], the figure is under 1000 nM.

Source of the values: patent US20070027150A1 (priority 2005, published 2007).
